The results in this text go back to patent US20230286973A1, “PROTEIN SECRETION INHIBITORS” (KEZAR LIFE SCIENCES, priority 2020, published 2023).

Molecules are shown by their SMILES. Bounds are passed on as bounds.

The subject of data set [1] is PD1-ss+10aa/Gaussia Luciferase. In words: Dox-Induced PD1-ss-Gluc Assay. Type of data set: cell-based. To be noted: 24 hr Dox induction; 293FRT/TO cells; read-out: 24 hr Dox Inducible PD1ssGluc 293FRT/TO: Mean IC50. The method, boiled down: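 Stable Flp-In 293 T-REx cells carried a doxycycline-inducible construct of Gaussia luciferase fused to the PD1 signal sequence plus 10 amino acids. Cells were plated the day before, then treated with compound dilutions in DMSO/media containing doxycycline at 37 °C, 5% CO2.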

Data set [2] deals with TNFα-FL/Gaussia Luciferase. The data set can be described thus: Dox Induced TNFα-FL-Gluc Assay. Type of data set: cell-based. Conditions: for IC50: 24 hr Dox induction, 293FRT/TO cells, read-out: 24 hr Dox Inducible TNFaFLGluc 293FRT/TO: Mean IC50; for 24 hr Dox Inducible TNFaFLGluc 293FRT/TO: TNF/PD1: ratio of TNFaFLGluc IC50 to PD1ssGluc IC50. In short, it runs like this: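 Cells are seeded one day ahead, then treated with compound plus doxycycline at 37 °C, 5% CO2. The stable Flp-In 293 T-REx line expresses full-length TNFα (amino acids 1-233) with Gaussia luciferase fused to its 3′ end, inducibly via T-REx.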

In data set [3] the test system is HER3-ss+4aa/Gaussia Luciferase. In words: Dox-Induced Her3-ss-Gluc Assay. Type of data set: cell-based. To be noted: 24 hr Dox induction; 293FRT/TO cells; read-out: 24 hr Dox Inducible Her3(ss + 4)Gluc 293FRT/TO: Mean IC50. The method, boiled down:
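Expression of a Gaussia luciferase reporter carrying the HER3 signal sequence plus 4 amino acids is induced by doxycycline in stably transfected Flp-In 293 T-REx cells. Compounds are added with doxycycline at 37° C., 5% CO2. Undefined stereocentres denote stereoisomer mixtures.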

Data set [4] has as its system IL-2-FL/Gaussia Luciferase. The data set can be described thus: Dox Induced IL2-FL-Gluc Assay. Conditions: for IC50: 24 hr Dox induction, 293FRT/TO cells, read-out: 24 hr Dox Inducible IL2FLGluc 293FRT/TO: Mean IC50; for 24 hr Dox Inducible IL2FLGluc 293FRT/TO: IL2/PD1: ratio of IL2FLGluc IC50 to PD1ssGluc IC50. Type of data set: cell-based. The method, boiled down:
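Reporter is Gaussia luciferase fused to the 3′ end of full-length IL-2 (aa 1-153), expressed from a doxycycline-inducible T-REx construct in stably selected Flp-In 293 cells. Compounds were co-added with doxycycline and incubated at 37° C, 5% CO2.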

In data set [5] the test system is multiple myeloma cell line NCI-H929. In words: H929 Cell Viability Assay. Conditions: Homo sapiens, NCI-H929, 48 h, NCI-H929 cells, Celltiter-Glo. The format is cell-based, human. In short, it runs like this: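 Plate the myeloma cells in RPMI 1640 with 10% FBS, add serially diluted compound, incubate for 48 hours at 37° C, then add CellTiter-Glo and read luciferase signal.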

The test system of data set [6] is multiple myeloma cell line U266B1. In words: U266 Cell Viability Assay. The format is cell-based, human. To be noted: Homo sapiens, U-266, 48 h, U266B1 cells, Celltiter-Glo. The method, boiled down: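 48 h treatment, 37° C./5% CO2, RPMI 1640 + 10% FBS; viability by CellTiter-Glo luminescence.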
Data set [7] in a line: Liver Microsome Stability Assay (rat). To be noted: rat liver microsomes, with NADPH, 1.0 uM compound.
Procedure: (§1) Stability of a compound was assessed in the presence of liver microsomes from various sources—mouse, rat, monkey and human liver microsomes. 1.0 uM compound, 0.4% DMSO in 0.1 M Potassium Phosphate with 1.0 mg/mL liver microsomes, were incubated at 37° C. with or without 1 mM NADPH. The samples were quenched at 0, and 30 minutes.
A short description of data set [8]: Liver Microsome Stability Assay (mouse). Conditions: mouse liver microsomes, with NADPH, 1.0 uM compound.
Procedure: as §1
The nature of data set [9]: Liver Microsome Stability Assay (human). Conditions: human liver microsomes, with NADPH, 1.0 uM compound.
Procedure: as §1
The nature of data set [10]: Liver Microsome Stability Assay (monkey). Conditions: monkey liver microsomes, with NADPH, 1.0 uM compound.
Procedure: as §1

With `CC(=O)N1CCC(Oc2ccc(N3CCC[C@@H]3c3csc(NC(=O)c4cccn4Cc4ccnc(F)c4)n3)c(F)c2)CC1` [Compound A100, (R)-N-(4-(1-(4-((1-acetylpiperidin-4-yl)oxy)-2-fluorophenyl)pyrrolidin-2-yl)thiazol-2-yl)-1-((2-fluoropyridin-4-yl)methyl)-1H-pyrrole-2-carboxamide], the IC50 in [1] was determined as 22.8 nM; in data set [2], 195 nM; in data set [3] it was 32 nM; in data set [4] it was 34.2 nM. Moreover, in data set [2], the “24 hr Dox Inducible TNFaFLGluc 293FRT/TO: TNF/PD1” value was 8.57. Also, in data set [4], the “24 hr Dox Inducible IL2FLGluc 293FRT/TO: IL2/PD1” value was determined as 1.5. Besides, the figures for the EC50 in data set [5] and in data set [6] were 442 nM and greater than 25000 nM, respectively. For the same compound, the “Liver Microsome Stability (Multiple Species): Rat - % Remaining after 30 min w/NADPH” value in data set [7] is listed as 14.8%. For the same compound, the “Liver Microsome Stability (Multiple Species): Mouse - % Remaining after 30 min w/NADPH” value in [8] is listed as 3.12%. The “Liver Microsome Stability (Multiple Species): Human - % Remaining after 30 min w/NADPH” value in data set [9] was 3.16%. For the same compound, in [10], the “Liver Microsome Stability (Multiple Species): Monkey - % Remaining after 30 min w/NADPH” value is 0.24%.

As for `NCCOc1ccc(N2CCC[C@@H]2c2csc(NC(=O)c3cccn3Cc3ccnc(F)c3)n2)cc1` [Compound A101, (R)-N-(4-(1-(4-(2-aminoethoxy)phenyl)pyrrolidin-2-yl)thiazol-2-yl)-1-((2-fluoropyridin-4-yl)methyl)-1H-pyrrole-2-carboxamide], the IC50 in [1] is 47.9 nM; in data set [2], 379 nM; in data set [3], 68.2 nM; in [4] it was 94.3 nM. In data set [2], the “24 hr Dox Inducible TNFaFLGluc 293FRT/TO: TNF/PD1” value is listed as 7.92. Further, the “24 hr Dox Inducible IL2FLGluc 293FRT/TO: IL2/PD1” value in data set [4] was found to be 2. The EC50 in data set [5] stood at 1270 nM; in [6], 12800 nM. The “Liver Microsome Stability (Multiple Species): Rat - % Remaining after 30 min w/NADPH” value in data set [7] is listed as 76.5%. Also, the “Liver Microsome Stability (Multiple Species): Mouse - % Remaining after 30 min w/NADPH” value in data set [8] stood at 62.7%. Also, in data set [9], the “Liver Microsome Stability (Multiple Species): Human - % Remaining after 30 min w/NADPH” value is 2.2%. Also, the “Liver Microsome Stability (Multiple Species): Monkey - % Remaining after 30 min w/NADPH” value in [10] was 14.5%.

Regarding `CC(=O)N1CCC(Oc2ccc(N3CCC[C@@H]3c3csc(NC(=O)c4cccn4Cc4ccnc(F)c4)n3)cc2F)CC1` [Compound A102, (R)-N-(4-(1-(4-((1-acetylpiperidin-4-yl)oxy)-3-fluorophenyl)pyrrolidin-2-yl)thiazol-2-yl)-1-((2-fluoropyridin-4-yl)methyl)-1H-pyrrole-2-carboxamide], the IC50 in data set [1] was 15 nM; in data set [2], 121 nM; in [3], 16.9 nM; in data set [4] it was 27.5 nM. Moreover, the “24 hr Dox Inducible TNFaFLGluc 293FRT/TO: TNF/PD1” value in data set [2] is listed as 8.11. Moreover, the “24 hr Dox Inducible IL2FLGluc 293FRT/TO: IL2/PD1” value in data set [4] was 1.8. Also, the EC50 is 317 nM in data set [5] and greater than 25000 nM in data set [6]. For the same compound, the “Liver Microsome Stability (Multiple Species): Rat - % Remaining after 30 min w/NADPH” value in [7] was 19.7%. For the same compound, the “Liver Microsome Stability (Multiple Species): Mouse - % Remaining after 30 min w/NADPH” value in data set [8] came out at 7.68%. Besides, the “Liver Microsome Stability (Multiple Species): Human - % Remaining after 30 min w/NADPH” value in data set [9] is 8.26%. The “Liver Microsome Stability (Multiple Species): Monkey - % Remaining after 30 min w/NADPH” value in [10] came out at 1.22%.

On to `CNCCOc1ccc(N2CCC[C@@H]2c2csc(NC(=O)c3cccn3Cc3ccnc(F)c3)n2)cc1` [Compound A103, (R)-1-((2-fluoropyridin-4-yl)methyl)-N-(4-(1-(4-(2-(methylamino)ethoxy)phenyl)pyrrolidin-2-yl)thiazol-2-yl)-1H-pyrrole-2-carboxamide], for which the IC50 in [1] was determined as 296 nM; in [2] it was 8640 nM; in [3] it was 670 nM; in data set [4], 843 nM. Also, the “24 hr Dox Inducible TNFaFLGluc 293FRT/TO: TNF/PD1” value in data set [2] was 29.2. In addition, the “24 hr Dox Inducible IL2FLGluc 293FRT/TO: IL2/PD1” value in data set [4] was 2.9. The EC50 in [5] stood at 4040 nM; in data set [6], 5660 nM. The “Liver Microsome Stability (Multiple Species): Rat - % Remaining after 30 min w/NADPH” value in [7] is given as 28.3%. In addition, the “Liver Microsome Stability (Multiple Species): Mouse - % Remaining after 30 min w/NADPH” value in data set [8] was 55%. In addition, in [9], the “Liver Microsome Stability (Multiple Species): Human - % Remaining after 30 min w/NADPH” value came out at 67%. Also, the “Liver Microsome Stability (Multiple Species): Monkey - % Remaining after 30 min w/NADPH” value in data set [10] is listed as 47.2%.

For the compound `CN(C)CCOc1ccc(N2CCC[C@@H]2c2csc(NC(=O)c3cccn3Cc3ccnc(F)c3)n2)cc1` [Compound A104, (R)-N-(4-(1-(4-(2-(dimethylamino)ethoxy)phenyl)pyrrolidin-2-yl)thiazol-2-yl)-1-((2-fluoropyridin-4-yl)methyl)-1H-pyrrole-2-carboxamide], the IC50 in data set [1] turned out to be 153 nM; in [2], 4030 nM; in data set [3] it was 355 nM; in data set [4] it was 435 nM. Moreover, the “24 hr Dox Inducible TNFaFLGluc 293FRT/TO: TNF/PD1” value in data set [2] was 26.3. Besides, the “24 hr Dox Inducible IL2FLGluc 293FRT/TO: IL2/PD1” value in data set [4] stood at 2.8. In addition, the half-maximal effective concentration (EC50) was determined as 3170 nM in [5] and 5760 nM in data set [6]. The “Liver Microsome Stability (Multiple Species): Rat - % Remaining after 30 min w/NADPH” value in [7] is 27.9%. In addition, in data set [8], the “Liver Microsome Stability (Multiple Species): Mouse - % Remaining after 30 min w/NADPH” value is on record as 16.5%. For the same compound, the “Liver Microsome Stability (Multiple Species): Human - % Remaining after 30 min w/NADPH” value in data set [9] amounted to 68.8%. For the same compound, the “Liver Microsome Stability (Multiple Species): Monkey - % Remaining after 30 min w/NADPH” value in data set [10] came to 51.6%.

Consider `CC(=O)N1CCC(Oc2cc(F)c(N3CCC[C@@H]3c3csc(NC(=O)c4cccn4Cc4ccnc(F)c4)n3)c(F)c2)CC1` [Compound A105, (R)-N-(4-(1-(4-((1-acetylpiperidin-4-yl)oxy)-2,6-difluorophenyl)pyrrolidin-2-yl)thiazol-2-yl)-1-((2-fluoropyridin-4-yl)methyl)-1H-pyrrole-2-carboxamide], for which the IC50 in data set [1] is 53.6 nM; in [2], 524 nM; in data set [3], 91.7 nM; in [4] it was 65.8 nM. Also, the “24 hr Dox Inducible TNFaFLGluc 293FRT/TO: TNF/PD1” value in [2] was determined as 9.81. Moreover, the “24 hr Dox Inducible IL2FLGluc 293FRT/TO: IL2/PD1” value in data set [4] is reported as 1.2. Also, the half-maximal effective concentration (EC50) was 1030 nM in [5] and greater than 25000 nM in data set [6]. Also, the “Liver Microsome Stability (Multiple Species): Rat - % Remaining after 30 min w/NADPH” value in [7] was 16.9%. The “Liver Microsome Stability (Multiple Species): Mouse - % Remaining after 30 min w/NADPH” value in data set [8] is on record as 1.29%. Further, in data set [9], the “Liver Microsome Stability (Multiple Species): Human - % Remaining after 30 min w/NADPH” value was 0.87%. Besides, in data set [10], the “Liver Microsome Stability (Multiple Species): Monkey - % Remaining after 30 min w/NADPH” value was found to be 0.98%.

`CC(=O)N1CCC(Oc2c(F)cc(N3CCC[C@@H]3c3csc(NC(=O)c4cccn4Cc4ccnc(F)c4)n3)cc2F)CC1` [Compound A106, (R)-N-(4-(1-(4-((1-acetylpiperidin-4-yl)oxy)-3,5-difluorophenyl)pyrrolidin-2-yl)thiazol-2-yl)-1-((2-fluoropyridin-4-yl)methyl)-1H-pyrrole-2-carboxamide]: the IC50 in data set [1] is 16.3 nM; in data set [2] it was 120 nM; in data set [3], 15.6 nM; in data set [4], 26.2 nM. Besides, the “24 hr Dox Inducible TNFaFLGluc 293FRT/TO: TNF/PD1” value in [2] is 7.32. The “24 hr Dox Inducible IL2FLGluc 293FRT/TO: IL2/PD1” value in data set [4] is given as 1.6. Also, the EC50 in [5] was 472 nM; in data set [6] it was greater than 25000 nM. Further, in data set [7], the “Liver Microsome Stability (Multiple Species): Rat - % Remaining after 30 min w/NADPH” value was determined as 3.12%. Further, the “Liver Microsome Stability (Multiple Species): Mouse - % Remaining after 30 min w/NADPH” value in data set [8] came to 1.43%. In data set [9], the “Liver Microsome Stability (Multiple Species): Human - % Remaining after 30 min w/NADPH” value amounted to 2.95%. Moreover, in [10], the “Liver Microsome Stability (Multiple Species): Monkey - % Remaining after 30 min w/NADPH” value worked out at 0.35%.
